Data: patent US20130053407A1, “PYRROLO [3,2-D] PYRIMIDIN-3-YL DERIVATIVES USED AS ACTIVATORS OF AMPK” (GlaxoSmithKline LLC, priority 2010, published 2013)

How the values were obtained:
Human recombinant AMPK = assay: AMPK Enzymatic Assay (Z'Lyte FRET); type: biochemical; conditions: AMPK activation, ATP 100 μM, peptide 2 μM, means of at least 2 independent experiments
Experimental: Human recombinant AMPK (Invitrogen #PV4673 & #PV4675) is used in a FRET assay format (Z'Lyte—Invitrogen). Assay conditions are as follow: ATP 100 μM, peptide (Invitrogen #PR8650) 2 μM, 1% final DMSO in Z'Lyte kinase buffer. Reaction is initiated by addition of 0.2-0.8 ng of AMPK and incubated for 1-hour @ 30° C. A further 1-hour incubation @ 30° C. with the development reagent (Invitrogen #PR5194) is performed. FRET signal is then measured and converted to “% peptide phosphorylation” according to Z′Lyte given calculation procedure. Evaluation of compounds is carried out using concentration-response curves. Final data are expressed in “% activation” calculating the ratio of “% peptide phosphorylation” between compound-condition and basal-condition. […] All data are means of at least 2 independent experiments.

ob/ob and db/db mice = conditions: 8 day AICAR administration; cited from earlier work

Row | pEC50 (Human recombinant AMPK) | SMILES | reduces blood glucose (ob/ob and db/db mice) [%]
1 | 5.4 | Cc1cccc(-c2ccc(-n3c(Cl)cc4[nH]c(=O)n(-c5ccc(C#N)cc5)c(=O)c43)cc2)c1O [4-[6-Chloro-5-(2′-hydroxy-3′-methyl-4-biphenylyl)-2,4-dioxo-1,2,4,5-tetrahydro-3H-pyrrolo[3,2-d]pyrimidin-3-yl]benzonitrile] | 
2 |  | NC(=O)c1ncn([C@@H]2O[C@H](CO)[C@@H](O)[C@H]2O)c1N [AICAR] | 35
3 | 5.3 | COc1cccc(-c2ccc(-n3c(Cl)cc4[nH]c(=O)n(-c5cccc(F)c5)c(=O)c43)cc2)c1O [6-Chloro-3-(3-fluorophenyl)-5-[2′-hydroxy-3′-(methyloxy)-4-biphenylyl]-1H-pyrrolo[3,2-d]pyrimidine-2,4(3H,5H)-dione] | 
